The values that follow come from patent publication US20210070748A1, “INHIBITORS OF BRUTONS TYROSINE KINASE” (Pharmacyclics LLC, priority 2015, published 2021).

Common to all, as to type: biochemical
The target of assay [1] is SRC (Homo sapiens, UniProt P12931). The experiment in a line: Inhibition of a panel of kinases, in vitro HotSpot kinase assay: SRC. To be noted: D-compounds panel data; 1 μM ATP. The procedure: (§1) The degree of inhibition of a panel of kinases is determined using the in vitro HotSpot kinase assay (purified enzymes, ^33P-ATP, an appropriate substrate and 1 μM ATP).
Chain of SRC (P12931 whole entry): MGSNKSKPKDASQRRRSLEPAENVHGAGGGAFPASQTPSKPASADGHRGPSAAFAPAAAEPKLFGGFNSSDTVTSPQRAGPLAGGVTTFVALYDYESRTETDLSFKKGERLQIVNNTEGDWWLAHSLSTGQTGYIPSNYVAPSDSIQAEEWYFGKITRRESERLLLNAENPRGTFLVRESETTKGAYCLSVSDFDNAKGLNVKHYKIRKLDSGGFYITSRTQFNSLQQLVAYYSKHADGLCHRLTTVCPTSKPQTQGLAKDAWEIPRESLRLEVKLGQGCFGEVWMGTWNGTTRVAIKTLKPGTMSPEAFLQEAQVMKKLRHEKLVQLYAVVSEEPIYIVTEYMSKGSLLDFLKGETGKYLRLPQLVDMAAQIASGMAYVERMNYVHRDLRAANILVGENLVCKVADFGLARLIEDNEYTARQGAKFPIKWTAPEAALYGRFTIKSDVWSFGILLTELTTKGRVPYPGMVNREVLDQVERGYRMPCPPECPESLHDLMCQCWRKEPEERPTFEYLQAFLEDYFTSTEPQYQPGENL
Assay [2] deals with LCK (Homo sapiens, UniProt P06239). The experiment in a line: Inhibition of a panel of kinases, in vitro HotSpot kinase assay: LCK. To be noted: D-compounds panel data; 1 μM ATP; read-out: IC50 LCK.
Chain of LCK (P06239 whole entry): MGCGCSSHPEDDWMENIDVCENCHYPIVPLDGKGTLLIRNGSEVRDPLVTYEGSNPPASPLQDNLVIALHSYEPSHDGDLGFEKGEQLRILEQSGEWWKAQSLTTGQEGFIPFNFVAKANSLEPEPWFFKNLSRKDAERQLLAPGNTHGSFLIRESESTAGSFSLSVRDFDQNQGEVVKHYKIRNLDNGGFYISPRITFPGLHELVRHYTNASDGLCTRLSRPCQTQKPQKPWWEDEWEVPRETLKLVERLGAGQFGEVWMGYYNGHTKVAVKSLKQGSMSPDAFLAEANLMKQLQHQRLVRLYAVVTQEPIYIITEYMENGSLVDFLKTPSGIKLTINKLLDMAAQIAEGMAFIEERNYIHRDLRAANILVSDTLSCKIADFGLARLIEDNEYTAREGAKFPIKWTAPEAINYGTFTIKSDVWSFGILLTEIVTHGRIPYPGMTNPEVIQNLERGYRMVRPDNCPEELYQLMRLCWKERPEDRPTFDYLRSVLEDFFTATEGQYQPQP
The target of assay [3] is T1, TEC (Homo sapiens, UniProt P42680).
T1 sequence (P42680 1-631): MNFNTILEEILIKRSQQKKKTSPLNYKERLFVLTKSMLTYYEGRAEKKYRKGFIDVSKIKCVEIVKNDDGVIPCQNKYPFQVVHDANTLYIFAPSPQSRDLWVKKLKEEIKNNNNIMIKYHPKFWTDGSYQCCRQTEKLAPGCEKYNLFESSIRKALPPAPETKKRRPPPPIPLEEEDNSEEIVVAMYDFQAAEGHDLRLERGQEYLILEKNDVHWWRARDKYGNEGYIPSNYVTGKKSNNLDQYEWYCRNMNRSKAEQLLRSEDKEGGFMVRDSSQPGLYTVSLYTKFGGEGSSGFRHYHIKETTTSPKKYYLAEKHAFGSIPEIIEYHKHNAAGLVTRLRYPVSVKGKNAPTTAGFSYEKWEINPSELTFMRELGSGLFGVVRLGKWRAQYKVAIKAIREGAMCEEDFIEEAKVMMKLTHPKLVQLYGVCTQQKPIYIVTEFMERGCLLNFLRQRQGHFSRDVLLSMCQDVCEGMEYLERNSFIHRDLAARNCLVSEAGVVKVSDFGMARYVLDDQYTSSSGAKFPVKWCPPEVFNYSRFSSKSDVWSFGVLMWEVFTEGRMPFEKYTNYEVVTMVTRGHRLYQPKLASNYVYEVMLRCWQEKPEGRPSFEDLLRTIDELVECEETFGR
Put plainly: Inhibition of a panel of kinases, in vitro HotSpot kinase assay: TEC. To be noted: D-compounds panel data; 1 μM ATP. Here is the method: as §1

The target of assay [4] is EGFR (Homo sapiens, UniProt P00533). The experiment in a line: Inhibition of a panel of kinases, in vitro HotSpot kinase assay: EGFR. To be noted: D-compounds panel data; 1 μM ATP. Here is the method: as §1
Chain of EGFR (P00533 25-1210): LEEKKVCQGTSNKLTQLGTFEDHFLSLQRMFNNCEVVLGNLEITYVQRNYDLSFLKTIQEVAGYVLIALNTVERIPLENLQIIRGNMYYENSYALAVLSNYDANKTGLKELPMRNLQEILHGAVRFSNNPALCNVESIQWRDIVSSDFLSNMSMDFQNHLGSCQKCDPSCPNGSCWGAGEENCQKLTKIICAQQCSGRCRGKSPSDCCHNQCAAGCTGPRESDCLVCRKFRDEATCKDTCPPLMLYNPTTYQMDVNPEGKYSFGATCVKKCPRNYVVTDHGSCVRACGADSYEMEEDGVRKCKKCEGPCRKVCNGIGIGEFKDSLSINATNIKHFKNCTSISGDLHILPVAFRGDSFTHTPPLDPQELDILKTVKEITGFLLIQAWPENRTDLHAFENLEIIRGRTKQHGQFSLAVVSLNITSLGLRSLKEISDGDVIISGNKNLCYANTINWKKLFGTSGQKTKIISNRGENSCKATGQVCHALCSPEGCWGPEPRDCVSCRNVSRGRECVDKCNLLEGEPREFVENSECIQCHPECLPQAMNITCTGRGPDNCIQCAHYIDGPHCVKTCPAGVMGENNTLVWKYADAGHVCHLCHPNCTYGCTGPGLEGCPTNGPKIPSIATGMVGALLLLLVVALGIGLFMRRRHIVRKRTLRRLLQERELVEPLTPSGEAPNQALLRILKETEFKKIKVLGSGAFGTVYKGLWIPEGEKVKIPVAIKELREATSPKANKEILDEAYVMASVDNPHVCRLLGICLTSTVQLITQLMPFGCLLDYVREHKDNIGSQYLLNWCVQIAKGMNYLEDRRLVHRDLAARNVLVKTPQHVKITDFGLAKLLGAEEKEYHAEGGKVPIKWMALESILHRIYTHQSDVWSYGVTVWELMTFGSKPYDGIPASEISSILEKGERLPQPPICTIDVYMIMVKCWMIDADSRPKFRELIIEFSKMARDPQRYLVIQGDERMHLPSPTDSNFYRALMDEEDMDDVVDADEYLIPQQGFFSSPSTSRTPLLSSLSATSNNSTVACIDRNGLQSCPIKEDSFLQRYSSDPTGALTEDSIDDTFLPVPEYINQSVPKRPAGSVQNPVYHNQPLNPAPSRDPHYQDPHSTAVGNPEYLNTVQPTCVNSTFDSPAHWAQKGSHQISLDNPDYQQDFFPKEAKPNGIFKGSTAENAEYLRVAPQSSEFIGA
Assay [5] deals with T2, ITK (Homo sapiens, UniProt Q08881).
T2 sequence (Q08881 1-620): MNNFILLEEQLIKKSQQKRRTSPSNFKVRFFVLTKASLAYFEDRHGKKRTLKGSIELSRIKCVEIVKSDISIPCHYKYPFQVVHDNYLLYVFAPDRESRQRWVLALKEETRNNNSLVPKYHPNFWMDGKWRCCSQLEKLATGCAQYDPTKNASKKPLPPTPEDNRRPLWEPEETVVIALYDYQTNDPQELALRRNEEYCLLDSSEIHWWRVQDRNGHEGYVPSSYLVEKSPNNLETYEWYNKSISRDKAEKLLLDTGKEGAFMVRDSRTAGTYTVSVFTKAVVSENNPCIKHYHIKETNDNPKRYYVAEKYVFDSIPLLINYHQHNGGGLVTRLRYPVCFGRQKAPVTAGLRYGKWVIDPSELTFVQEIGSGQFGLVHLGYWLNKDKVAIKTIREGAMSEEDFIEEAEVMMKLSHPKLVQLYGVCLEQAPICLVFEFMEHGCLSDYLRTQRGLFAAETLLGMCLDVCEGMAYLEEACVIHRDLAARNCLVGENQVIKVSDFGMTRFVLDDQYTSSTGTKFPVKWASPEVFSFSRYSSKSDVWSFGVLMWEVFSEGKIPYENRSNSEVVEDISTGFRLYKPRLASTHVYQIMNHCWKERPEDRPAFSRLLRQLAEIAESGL
The experiment in a line: Inhibition of a panel of kinases, in vitro HotSpot kinase assay: ITK. The note with it: D-compounds panel data; 1 μM ATP. Here is the method:
as §1

Where only a bound is given, the exact number is not on record here.

With `Cc1cc(Nc2nc(N3CCC[C@@H](NC(=O)c4ccc(C(C)(C)O)cc4)C3)cnc2C(N)=O)sn1` [Example D-158, 5-[(3R)-3-[4-(2-hydroxypropan-2-yl)benzamido]piperidin-1-yl]-3-[(3-methyl-1,2-thiazol-5-yl)amino]pyrazine-2-carboxamide], the IC50 is 0.1 to 1 µM in assay [1]; 0.1 to 1 µM in assay [2]; 0.01 to 0.1 µM in assay [3]; 1 to 10 µM in assay [4]; 0.1 to 1 µM in assay [5].

Consider `C[C@@H]1[C@H](NC(=O)c2ccc(C3CC3)cc2)CCCN1c1cnc(C(N)=O)c(Nc2ccc(N3CCN(C)CC3)cc2F)n1` [Example D-103, 5-[(2R,3R)-3-(4-cyclopropylbenzamido)-2-methylpiperidin-1-yl]-3-{[2-fluoro-4-(4-methylpiperazin-1-yl)phenyl]amino}pyrazine-2-carboxamide], for which the IC50 in assay [1] lay in the range of 1 to 10 µM; in assay [2] it was 0.1 to 1 µM; in assay [3], 0.1 to 1 µM; in assay [4], 0.1 to 1 µM; in assay [5] it was 0.1 to 1 µM.

For the molecule `C[C@@H]1[C@H](NC(=O)N(C)C)CCCN1c1cnc(C(N)=O)c(Nc2cc(C3CCOCC3)ns2)n1` [Example D-162, 5-[(2R,3R)-3-[(dimethylcarbamoyl)amino]-2-methylpiperidin-1-yl]-3-{[3-(oxan-4-yl)-1,2-thiazol-5-yl]amino}pyrazine-2-carboxamide], the half-maximal inhibitory concentration (IC50) in assay [1] is 0.01 to 0.1 µM; in assay [2], 0.01 to 0.1 µM; in assay [3], no more than 0.01 µM; in assay [4], 0.1 to 1 µM; in assay [5], 0.1 to 1 µM.

With `C[C@@H]1[C@H](NC(=O)c2ccc(C(F)(F)F)cc2)CCCN1c1cnc(C(N)=O)c(Nc2ccc(N3CCN(C)CC3)cc2)n1` [Example D-11, 5-[(2R,3R)-2-methyl-3-[4-(trifluoromethyl)benzamido]piperidin-1-yl]-3-{[4-(4-methylpiperazin-1-yl)phenyl]amino}pyrazine-2-carboxamide], the IC50 in assay [1] was in the range of 0.01 to 0.1 µM; in assay [2] it was 0.01 to 0.1 µM; in assay [3] it was 0.01 to 0.1 µM; in assay [4] it was 0.1 to 1 µM; in assay [5], 0.1 to 1 µM.

Turning to `C[C@@H]1[C@H](NC(=O)c2ccc(C3CC3)cc2F)CCCN1c1cnc(C(N)=O)c(Nc2ccc3ncccc3c2)n1` [Example D-114, 5-[(2R,3R)-3-(4-cyclopropyl-2-fluorobenzamido)-2-methylpiperidin-1-yl]-3-[(quinolin-6-yl)amino]pyrazine-2-carboxamide], the IC50 was 0.1 to 1 µM in assay [1]; greater than 10 µM in assay [2]; 0.01 to 0.1 µM in assay [3]; greater than 10 µM in assay [4]; greater than 10 µM in assay [5].

Turning to `CN1CCN(Cc2ccc(Nc3nc(N4CCC[C@@H](n5ccc6cc(C7CC7)ccc6c5=O)C4)cnc3C(N)=O)cc2)CC1` [Example D-167, 5-[(3R)-3-(6-cyclopropyl-1-oxo-1,2-dihydroisoquinolin-2-yl)piperidin-1-yl]-3-({4-[(4-methylpiperazin-1-yl)methyl]phenyl}amino)pyrazine-2-carboxamide], the IC50 in assay [1] was 0.1 to 1 µM; in assay [2], 0.1 to 1 µM; in assay [3], 0.01 to 0.1 µM; in assay [4] it was 1 to 10 µM; in assay [5] it was 0.1 to 1 µM.

For `C[C@@H]1[C@H](NC(=O)c2ccc(C3CC3)cc2)CCCN1c1cnc(C(N)=O)c(Nc2cnn(C)c2)n1` [Example D-135, 5-[(2R,3R)-3-(4-cyclopropylbenzamido)-2-methylpiperidin-1-yl]-3-[(1-methyl-1H-pyrazol-4-yl)amino]pyrazine-2-carboxamide], the concentration for half-maximal inhibition (IC50) was in the range of 0.1 to 1 µM in assay [1]; 0.1 to 1 µM in assay [2]; 0.01 to 0.1 µM in assay [3]; 1 to 10 µM in assay [4]; 0.1 to 1 µM in assay [5].

`C[C@@H]1CC[C@H](NC(=O)c2ccc(C3CC3)cc2)CN1c1cnc(C(N)=O)c(Nc2cnn(C)c2)n1` [Example D-145, 5-[(2R,5S)-5-(4-cyclopropylbenzamido)-2-methylpiperidin-1-yl]-3-[(1-methyl-1H-pyrazol-4-yl)amino]pyrazine-2-carboxamide]: the IC50 was 1 to 10 µM in assay [1]; 1 to 10 µM in assay [2]; 1 to 10 µM in assay [3]; 1 to 10 µM in assay [4]; greater than 10 µM in assay [5].

In the case of `C[C@@H]1[C@H](NC(=O)c2ccc(C3CC3)cc2F)CCCN1c1cnc(C(N)=O)c(Nc2ccc(CN3CCN(C)CC3)cc2)c1` [Example D-125, 5-[(2R,3R)-3-(4-cyclopropyl-2-fluorobenzamido)-2-methylpiperidin-1-yl]-3-({4-[(4-methylpiperazin-1-yl)methyl]phenyl}amino)pyridine-2-carboxamide], the 50% inhibitory concentration (IC50) in assay [1] is 1 to 10 µM; in assay [2], 0.1 to 1 µM; in assay [3], 1 to 10 µM; in assay [4], greater than 10 µM; in assay [5] it was 1 to 10 µM.

In the case of `C[C@@H]1[C@H](NC(=O)N(C)C)CCCN1c1cnc(C(N)=O)c(Nc2ccc(N3CCN(C)CC3)cc2)c1` [Example D-127, 5-[(2R,3R)-3-[(dimethylcarbamoyl)amino]-2-methylpiperidin-1-yl]-3-{[4-(4-methylpiperazin-1-yl)phenyl]amino}pyridine-2-carboxamide], the 50% inhibitory concentration (IC50) is 1 to 10 µM in assay [1]; 1 to 10 µM in assay [2]; 1 to 10 µM in assay [3]; greater than 10 µM in assay [4]; 1 to 10 µM in assay [5].

For the molecule `CC(=O)NC(C)(C)c1ccc(C(=O)N[C@@H]2CCCN(c3cnc(C(N)=O)c(Nc4cnn(C)c4)n3)[C@@H]2C)cc1` [Example D-107, 5-[(2R,3R)-3-[4-(2-acetamidopropan-2-yl)benzamido]-2-methylpiperidin-1-yl]-3-[(1-methyl-1H-pyrazol-4-yl)amino]pyrazine-2-carboxamide], the IC50 in assay [1] was 0.01 to 0.1 µM; in assay [2], 0.1 to 1 µM; in assay [3], no more than 0.01 µM; in assay [4], 1 to 10 µM; in assay [5] it was 0.1 to 1 µM.

Consider `C[C@@H]1[C@H](NC(=O)c2ccc(C3CC3)cc2F)CCCN1c1cnc(C(N)=O)c(Nc2ccc(N3CCN(C4CCCC4)CC3)cc2)n1` [Example D-5, 3-{[4-(4-cyclopentylpiperazin-1-yl)phenyl]amino}-5-[(2R,3R)-3-(4-cyclopropyl-2-fluorobenzamido)-2-methylpiperidin-1-yl]pyrazine-2-carboxamide], for which the IC50 in assay [1] was in the range of 0.01 to 0.1 µM; in assay [2], 0.1 to 1 µM; in assay [3], 0.01 to 0.1 µM; in assay [4] it was 0.1 to 1 µM; in assay [5], 0.1 to 1 µM.

For `C[C@@H]1[C@H](NC(=O)N(C)C)CCCN1c1cnc(C(N)=O)c(Nc2cc(CN3CCOCC3)ns2)n1` [Example D-118, 5-[(2R,3R)-3-[(dimethylcarbamoyl)amino]-2-methylpiperidin-1-yl]-3-{[3-(morpholin-4-ylmethyl)-1,2-thiazol-5-yl]amino}pyrazine-2-carboxamide], the IC50 in assay [1] was in the range of 0.1 to 1 µM; in assay [2], 0.1 to 1 µM; in assay [3], 0.1 to 1 µM; in assay [4], 1 to 10 µM; in assay [5], 0.1 to 1 µM.

As for `CN1CCN(c2ccc(Nc3nc(N4CCC[C@@H](n5ccc6cc(C7CC7)ccc6c5=O)C4)cnc3C(N)=O)cc2)CC1` [Example D-165, 5-[(3R)-3-(6-cyclopropyl-1-oxo-1,2-dihydroisoquinolin-2-yl)piperidin-1-yl]-3-{[4-(4-methylpiperazin-1-yl)phenyl]amino}pyrazine-2-carboxamide], the IC50 in assay [1] was 0.1 to 1 µM; in assay [2], 0.1 to 1 µM; in assay [3], 0.01 to 0.1 µM; in assay [4] it was greater than 10 µM; in assay [5], 0.1 to 1 µM.
